This note sets out measurements from patent US20190256564A1, “NEMERTEA-DERIVED BIOACTIVE COMPOUNDS” (priority 2016, published 2019).

SMILES strings stand for the structures. pIC50: −log10 of the molar value.

For the assay, the system named is Artemia salina. To be noted: in vivo, 24 h. Here is the method:
Alpha-Nemertides were prepared as described in Example 2, above, or by manual synthesis […] on 2-chlorotrityl resin as described in the Material and methods section below. […]. The brine shrimp assay is commonly used as toxicity assay, but is particularly suitable in the current work as a model system for crustaceans. In the first round of experiments Nemertides α-1, α-2, α-5, and α-6 were evaluated. […]. Artemia salina Assay of Alpha-Nemertides. 100 μl of sea water containing about 20-30 brine shrimps were added to each experimental well of a 96-well microplate. 100 μl of peptide solutions were then added to each well. As a control, some wells were filled with 100 μl of seawater containing shrimps and 100 μl milliQwater. The plates were covered and incubated in the dark at room temperature for 24 hours. After 24 hours, 10 second video clips of each well were filmed through a microscope. The shrimps were subsequently counted and categorized as either dead (not moving), affected (moving slowly, mostly at the bottom of the well) or normal (moving normally compared to the control at all levels of the well). The shrimps were then immobilized by addition of 100 μl of methanol. After 1 hour the total number of shrimps in each well was counted and the ratio (dead+affected)/total was calculated.

Regarding `CC[C@H](C)[C@@H]1NC(=O)[C@@H](NC(=O)CN)CSSC[C@@H]2NC(=O)[C@@H]3CSSC[C@@H](C(=O)N[C@@H](CC(N)=O)C(=O)N4C[C@H](O)C[C@H]4C(=O)N4C[C@H](O)C[C@H]4C(=O)N[C@@H](CC(N)=O)C(=O)N[C@@H](CCC(N)=O)C(=O)O)NC(=O)[C@H](Cc4c[nH]cn4)NC(=O)[C@H](Cc4ccccc4)NC(=O)[C@H](CC(N)=O)NC(=O)[C@H](Cc4c[nH]c5ccccc45)NC(=O)CNC(=O)[C@H](CSSC[C@H](NC(=O)[C@H](Cc4ccccc4)NC(=O)[C@H](CO)NC(=O)CNC(=O)[C@H]([C@@H](C)O)NC(=O)[C@H](C)NC1=O)C(=O)N[C@@H]([C@@H](C)O)C(=O)N[C@@H](CC(C)C)C(=O)N[C@@H](CO)C(=O)N[C@@H](CCCCN)C(=O)NCC(=O)N3)NC(=O)[C@H](CC(N)=O)NC(=O)[C@H](CCCCN)NC(=O)[C@H]([C@@H](C)O)NC2=O` [Nemertide α-5], the pIC50 was greater than 6.00.
